Reference: US7166299B2, “Preparation of aqueous clear solution dosage forms with bile acids” (priority 1998, dated 2007)
“And” between values parts separate entries of the source, which are not always exact repeats. Equal entries are not always repeated.

Assay: Solution stability test (HPLC) of UDCA, branched chained amino acids and maltodextrin solution, Example IV
Format: physicochemical
Method: The stability tests were conducted on three different aqueous solution systems: […]. A bile acid and a high molecular weight aqueous soluble starch conversion product were combined in aqueous solution according to Example I, with results as shown in Tables 1A and 1B. • 2. Mixed bile acids and high molecular weight aqueous soluble starch conversion products were combined in aqueous solution according to Example II, with results as shown in Table 2. • 3. Bile acids, high molecular weight aqueous soluble starch conversion products and branched chained amino acids (e.g. leucine, isoleucine, valine, or other amino acid with a branched side chain) were combined in aqueous solution according to Example IV, with results as shown in Tables 3A through 3F. The stability tests were performed with HPLC and microscope light at various pH conditions under the normal and accelerated conditions. Accelerated conditions for testing pharmaceutical compositions have been described (Remington, The Science and Practice of Pharmacy, 19th ed., p. 640). […] Thus, the formulations of the examples are suitable for preparing a commercial liquid dosage form. […] Some formulations remain stable for over 2 years. Moreover, the solution stability tests were conducted on the aqueous solution dosage forms comprising the mixture of aqueous soluble UDCA, branched chained amino acid (leucine, isoleucine, valine) and maltodextrin according to example IV as a typical example of the solution dosage forms in which bile acid as a therapeutically active agent, as an adjuvant or carrier, pharmaceutically active agent, or enhancer of solubility, and high molecular weight aqueous soluble starch conversion products or soluble non-starch polysaccharides are dissolved. According to the test results, there is no discoloration, no clarity changes, and no precipitation. […] In the tables, the concentration of the indicated bile acid salt for each of the three numbered trials and the average thereof is reported on each line. The percentage indicates the relative concentration of the bile acid salt after incubation for a certain amount of time in comparison with the initial concentration. 85 mL of the aqueous solution in which soluble UDCA is dissolved was prepared, and then maltodextrin was added into the clear solution. Into the resulting clear solution, branched amino acids were added with adjusting the pH (4–7) with agitation and then sweetener, preservatives, and flavoring agent were added. Purified water was added to adjust the total volume to be 100 mL. Tables 3A to 3F show stability test results over time of formulation prepared with amino acids according to Example IV. All stability tests were conducted at 50° C. Stability test results at pH 1 (Table 3A), pH 3 (Table 3B), pH 5 (Table 3C), pH 7 (Table 3D), pH 9 (Table 3E), and pH 10 (Table 3F) are shown.

- Percentage of day 0 concentration (Table 3A: pH1, 50° C., day 0): 100.0%
- concentration by HPLC, Average (Table 3A: pH1, 50° C., day 0): 0.471
- concentration by HPLC, trials #1-#3 (Table 3A: pH1, 50° C., day 0): 0.506 and 0.448 and 0.460
- Percentage of day 0 concentration (Table 3A: pH1, 50° C., day 1): 96.7%
- concentration by HPLC, Average (Table 3A: pH1, 50° C., day 1): 0.456
- concentration by HPLC, trials #1-#3 (Table 3A: pH1, 50° C., day 1): 0.438 and 0.458 and 0.471
- Percentage of day 0 concentration (Table 3A: pH1, 50° C., day 2): 104.5%
- concentration by HPLC, Average (Table 3A: pH1, 50° C., day 2): 0.492
- concentration by HPLC, trials #1-#3 (Table 3A: pH1, 50° C., day 2): 0.479 and 0.485 and 0.513
- Percentage of day 0 concentration (Table 3A: pH1, 50° C., day 6): 112.4%
- concentration by HPLC, Average (Table 3A: pH1, 50° C., day 6): 0.530
- concentration by HPLC, trials #1-#3 (Table 3A: pH1, 50° C., day 6): 0.505 and 0.536 and 0.549
- Percentage of day 0 concentration (Table 3A: pH1, 50° C., day 7): 102.9%
- concentration by HPLC, Average (Table 3A: pH1, 50° C., day 7): 0.485
- concentration by HPLC, trials #1-#3 (Table 3A: pH1, 50° C., day 7): 0.494 and 0.465 and 0.496
- Percentage of day 0 concentration (Table 3A: pH1, 50° C., day 8): 101.7%
- concentration by HPLC, Average (Table 3A: pH1, 50° C., day 8): 0.479
- concentration by HPLC, trials #1-#3 (Table 3A: pH1, 50° C., day 8): 0.488 and 0.491 and 0.459
- Percentage of day 0 concentration (Table 3A: pH1, 50° C., day 9): 103.6%
- concentration by HPLC, Average (Table 3A: pH1, 50° C., day 9): 0.488
- concentration by HPLC, trials #1-#3 (Table 3A: pH1, 50° C., day 9): 0.479 and 0.496 and 0.490
- Percentage of day 0 concentration (Table 3B: pH 3, 50° C., day 0): 100.0%
- concentration by HPLC, Average (Table 3B: pH 3, 50° C., day 0): 0.491
- concentration by HPLC, trials #1-#3 (Table 3B: pH 3, 50° C., day 0): 0.485 and 0.491 and 0.498
- Percentage of day 0 concentration (Table 3B: pH 3, 50° C., day 1): 94.6%
- concentration by HPLC, Average (Table 3B: pH 3, 50° C., day 1): 0.465
- concentration by HPLC, trials #1-#3 (Table 3B: pH 3, 50° C., day 1): 0.467 and 0.481 and 0.446
- Percentage of day 0 concentration (Table 3B: pH 3, 50° C., day 2): 103.8%
- concentration by HPLC, Average (Table 3B: pH 3, 50° C., day 2): 0.510
- concentration by HPLC, trials #1-#3 (Table 3B: pH 3, 50° C., day 2): 0.510 and 0.493 and 0.527
- Percentage of day 0 concentration (Table 3B: pH 3, 50° C., day 6): 106.6%
- concentration by HPLC, Average (Table 3B: pH 3, 50° C., day 6): 0.524
- concentration by HPLC, trials #1-#3 (Table 3B: pH 3, 50° C., day 6): 0.527 and 0.491 and 0.553
- Percentage of day 0 concentration (Table 3B: pH 3, 50° C., day 7): 97.3%
- concentration by HPLC, Average (Table 3B: pH 3, 50° C., day 7): 0.478
- concentration by HPLC, trials #1-#3 (Table 3B: pH 3, 50° C., day 7): 0.485 and 0.481 and 0.468
- Percentage of day 0 concentration (Table 3B: pH 3, 50° C., day 8): 103.5%
- concentration by HPLC, Average (Table 3B: pH 3, 50° C., day 8): 0.508
- concentration by HPLC, trials #1-#3 (Table 3B: pH 3, 50° C., day 8): 0.490 and 0.491 and 0.544
- Percentage of day 0 concentration (Table 3B: pH 3, 50° C., day 13): 104.1%
- concentration by HPLC, Average (Table 3B: pH 3, 50° C., day 13): 0.511
- concentration by HPLC, trials #1-#3 (Table 3B: pH 3, 50° C., day 13): 0.519 and 0.498 and 0.517
- Percentage of day 0 concentration (Table 3C: pH 5, 50° C., day 0): 100.0%
- concentration by HPLC, Average (Table 3C: pH 5, 50° C., day 0): 0.487
- concentration by HPLC, trials #1-#3 (Table 3C: pH 5, 50° C., day 0): 0.483 and 0.498 and 0.481
- Percentage of day 0 concentration (Table 3C: pH 5, 50° C., day 3): 103.4%
- concentration by HPLC, Average (Table 3C: pH 5, 50° C., day 3): 0.504
- concentration by HPLC, trials #1-#3 (Table 3C: pH 5, 50° C., day 3): 0.492 and 0.494 and 0.526
- Percentage of day 0 concentration (Table 3C: pH 5, 50° C., day 6): 96.8%
- concentration by HPLC, Average (Table 3C: pH 5, 50° C., day 6): 0.472
- concentration by HPLC, trials #1-#3 (Table 3C: pH 5, 50° C., day 6): 0.459 and 0.475 and 0.481
- Percentage of day 0 concentration (Table 3C: pH 5, 50° C., day 10): 96.9%
- concentration by HPLC, Average (Table 3C: pH 5, 50° C., day 10): 0.472
- concentration by HPLC, trials #1-#3 (Table 3C: pH 5, 50° C., day 10): 0.500 and 0.436 and 0.480
- Percentage of day 0 concentration (Table 3C: pH 5, 50° C., day 13): 95.0%
- concentration by HPLC, Average (Table 3C: pH 5, 50° C., day 13): 0.463
- concentration by HPLC, trials #1-#3 (Table 3C: pH 5, 50° C., day 13): 0.464 and 0.451 and 0.474
- Percentage of day 0 concentration (Table 3C: pH 5, 50° C., day 17): 93.0%
- concentration by HPLC, Average (Table 3C: pH 5, 50° C., day 17): 0.453
- concentration by HPLC, trials #1-#3 (Table 3C: pH 5, 50° C., day 17): 0.407 and 0.491 and 0.462
- Percentage of day 0 concentration (Table 3C: pH 5, 50° C., day 20): 99.9%
- concentration by HPLC, Average (Table 3C: pH 5, 50° C., day 20): 0.487
- concentration by HPLC, trials #1-#3 (Table 3C: pH 5, 50° C., day 20): 0.471 and 0.512 and 0.477
- Percentage of day 0 concentration (Table 3C: pH 5, 50° C., day 24): 96.1%
- concentration by HPLC, Average (Table 3C: pH 5, 50° C., day 24): 0.468
- concentration by HPLC, trials #1-#3 (Table 3C: pH 5, 50° C., day 24): 0.471 and 0.476 and 0.458
- Percentage of day 0 concentration (Table 3D: pH 7, 50° C., day 0): 100.0%
- concentration by HPLC, Average (Table 3D: pH 7, 50° C., day 0): 0.513
- concentration by HPLC, trials #1-#3 (Table 3D: pH 7, 50° C., day 0): 0.483 and 0.530 and 0.525
- Percentage of day 0 concentration (Table 3D: pH 7, 50° C., day 5): 94.1%
- concentration by HPLC, Average (Table 3D: pH 7, 50° C., day 5): 0.483
- concentration by HPLC, trials #1-#3 (Table 3D: pH 7, 50° C., day 5): 0.502 and 0.447 and 0.499
- Percentage of day 0 concentration (Table 3D: pH 7, 50° C., day 8): 96.2%
- concentration by HPLC, Average (Table 3D: pH 7, 50° C., day 8): 0.493
- concentration by HPLC, trials #1-#3 (Table 3D: pH 7, 50° C., day 8): 0.488 and 0.498 and 0.493
- Percentage of day 0 concentration (Table 3D: pH 7, 50° C., day 12): 91.2%
- concentration by HPLC, Average (Table 3D: pH 7, 50° C., day 12): 0.467
- concentration by HPLC, trials #1-#3 (Table 3D: pH 7, 50° C., day 12): 0.490 and 0.469 and 0.443
- Percentage of day 0 concentration (Table 3D: pH 7, 50° C., day 15): 95.9%
- concentration by HPLC, Average (Table 3D: pH 7, 50° C., day 15): 0.492
- concentration by HPLC, trials #1-#3 (Table 3D: pH 7, 50° C., day 15): 0.492 and 0.541 and 0.442
- Percentage of day 0 concentration (Table 3D: pH 7, 50° C., day 19): 93.6%
- concentration by HPLC, Average (Table 3D: pH 7, 50° C., day 19): 0.480
- concentration by HPLC, trials #1-#3 (Table 3D: pH 7, 50° C., day 19): 0.458 and 0.500 and 0.482
- Percentage of day 0 concentration (Table 3E: pH 9, 50° C., day 0): 100.0%
- concentration by HPLC, Average (Table 3E: pH 9, 50° C., day 0): 0.489
- concentration by HPLC, trials #1-#3 (Table 3E: pH 9, 50° C., day 0): 0.508 and 0.476 and 0.484
- Percentage of day 0 concentration (Table 3E: pH 9, 50° C., day 3): 97.8%
- concentration by HPLC, Average (Table 3E: pH 9, 50° C., day 3): 0.478
- concentration by HPLC, trials #1-#3 (Table 3E: pH 9, 50° C., day 3): 0.463 and 0.487 and 0.485
- Percentage of day 0 concentration (Table 3E: pH 9, 50° C., day 6): 99.5%
- concentration by HPLC, Average (Table 3E: pH 9, 50° C., day 6): 0.487
- concentration by HPLC, trials #1-#3 (Table 3E: pH 9, 50° C., day 6): 0.493 and 0.473 and 0.495
- Percentage of day 0 concentration (Table 3E: pH 9, 50° C., day 10): 91.3%
- concentration by HPLC, Average (Table 3E: pH 9, 50° C., day 10): 0.447
- concentration by HPLC, trials #1-#3 (Table 3E: pH 9, 50° C., day 10): 0.441 and 0.428 and 0.471
- Percentage of day 0 concentration (Table 3E: pH 9, 50° C., day 13): 101.3%
- concentration by HPLC, Average (Table 3E: pH 9, 50° C., day 13): 0.496
- concentration by HPLC, trials #1-#3 (Table 3E: pH 9, 50° C., day 13): 0.467 and 0.483 and 0.537
- Percentage of day 0 concentration (Table 3E: pH 9, 50° C., day 17): 101.8%
- concentration by HPLC, Average (Table 3E: pH 9, 50° C., day 17): 0.498
- concentration by HPLC, trials #1-#3 (Table 3E: pH 9, 50° C., day 17): 0.499
- Percentage of day 0 concentration (Table 3F: pH 10, 50° C., day 0): 100.0%
- concentration by HPLC, Average (Table 3F: pH 10, 50° C., day 0): 0.486
- Percentage of day 0 concentration (Table 3F: pH 10, 50° C., day 2): 104.2%
- concentration by HPLC, Average (Table 3F: pH 10, 50° C., day 2): 0.506
- Percentage of day 0 concentration (Table 3F: pH 10, 50° C., day 5): 83.5%
- concentration by HPLC, Average (Table 3F: pH 10, 50° C., day 5): 0.405
- Percentage of day 0 concentration (Table 3F: pH 10, 50° C., day 7): 81.8%
- concentration by HPLC, Average (Table 3F: pH 10, 50° C., day 7): 0.397
- Percentage of day 0 concentration (Table 3F: pH 10, 50° C., day 9): 75.8%
- concentration by HPLC, Average (Table 3F: pH 10, 50° C., day 9): 0.368
SMILES: CC(C)[C@H](N)C(=O)O [Val, valine]
